The results in this text go back to patent US20260184687A1, “DIHYDROINDENE DERIVATIVES AS MALT1 INHIBITORS” (C4X Discovery Limited, priority 2022, published 2026).

A word on the IC50: it is the concentration at which inhibition is half-maximal.

In assay [1] the test system is IL-2 release from stimulated Jurkat cells. Kind of assay: Human IL-2 Release Phenotypic Assay (Assay 3). Format: cell-based. The following applies: Jurkat cells (clone E6-1), 200 ng/mL PMA + 300 ng/mL ionomycin, IL-2 by ELISA. An outline of the steps: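 IC50 values were fitted by 4-parameter non-linear regression to IL-2 release from Jurkat E6-1 cells. Those cells were stimulated for 48 h with PMA (200 ng/mL) plus ionomycin (300 ng/mL) after a 30-min compound pre-incubation at half-log doses in 0.5% DMSO. Cells had been plated at 50 000/well overnight at 37° C.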
(In general: An ELISA detects its analyte on a solid surface through an enzyme-linked reagent.)

The next assay has as its target T1, FL hMALT1 enzyme (Homo sapiens, UniProt Q9UDY8).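 Also: Cell-free protease assay: enzyme preincubated with compound 30 min at room temperature, then cleavage of fluorogenic Ac-LVSR-AMC substrate (100 µM) tracked by fluorescence (ex 360/em 460 nm).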
T1 sequence (Q9UDY8 1-824): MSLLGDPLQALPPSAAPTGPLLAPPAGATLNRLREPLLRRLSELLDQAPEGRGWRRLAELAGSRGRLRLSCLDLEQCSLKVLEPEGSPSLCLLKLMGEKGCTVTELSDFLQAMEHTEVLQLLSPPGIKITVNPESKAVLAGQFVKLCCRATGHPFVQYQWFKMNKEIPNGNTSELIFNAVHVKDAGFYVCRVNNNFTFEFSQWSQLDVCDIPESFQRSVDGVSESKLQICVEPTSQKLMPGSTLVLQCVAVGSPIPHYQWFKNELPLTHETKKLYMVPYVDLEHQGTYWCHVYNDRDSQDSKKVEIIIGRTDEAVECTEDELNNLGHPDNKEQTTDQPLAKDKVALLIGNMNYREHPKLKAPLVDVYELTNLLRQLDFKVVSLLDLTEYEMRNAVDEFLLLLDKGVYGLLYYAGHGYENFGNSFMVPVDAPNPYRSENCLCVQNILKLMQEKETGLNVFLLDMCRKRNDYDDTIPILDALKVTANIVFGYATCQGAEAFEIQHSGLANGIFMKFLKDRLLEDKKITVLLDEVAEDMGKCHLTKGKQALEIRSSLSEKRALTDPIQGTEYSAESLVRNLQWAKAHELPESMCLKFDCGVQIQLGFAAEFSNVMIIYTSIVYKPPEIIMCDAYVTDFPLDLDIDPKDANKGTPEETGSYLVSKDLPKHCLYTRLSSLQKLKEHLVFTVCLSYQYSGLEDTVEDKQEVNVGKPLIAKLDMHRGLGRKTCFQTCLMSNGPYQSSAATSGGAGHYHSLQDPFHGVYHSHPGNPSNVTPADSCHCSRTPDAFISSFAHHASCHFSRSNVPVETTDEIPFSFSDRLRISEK
Put plainly: biochemical.

Take `CN(C(=O)C1CNC(=O)O1)[C@@H](c1ccc(N[C@@H]2Cc3ccccc3C2(C)C)cn1)C(F)(F)F` (single isomer, unassigned) [Example 109]: the IC50 in assay [1] (48 hours) came out at 900 nM; against FL hMALT1 enzyme it was 760 nM.

Regarding `CN(C(=O)C1CCNC(=O)C1)[C@@H](c1ccc(NC2Cc3ccccc3C2(C)C)cn1)C(F)(F)F` (single isomer, unassigned) [Example 118], the results for the IC50 (in assay [1] (48 hours); on FL hMALT1 enzyme) were 280 nM and 49 nM, respectively.

Take `CN(C(=O)[C@H]1CCC(=O)NC1)[C@@H](c1ccc(NC2Cc3ccc(Cl)c(Cl)c3C2)cn1)C(F)(F)F` (single isomer, unassigned) [Example 321]: the IC50 in assay [1] (Homo sapiens, Jurkat, 48 h) amounted to 86 nM; at FL hMALT1 enzyme, 25 nM.

As to `CN(C(=O)C1CN2CCC1CC2)[C@@H](c1ccc(NC2Cc3ccccc3C2(C)C)cn1)C(F)(F)F` (single isomer, unassigned) [Example 140], the IC50 in assay [1] (Homo sapiens, Jurkat, 48 h) is 1270 nM; at FL hMALT1 enzyme it was 180 nM.

On to `CCc1cccc2c1CC(Nc1ccc([C@H](N(C)C(=O)C3CCS(=O)(=O)CC3)C(F)(F)F)nc1)C2` (single isomer, unassigned) [Example 198], for which the IC50 in assay [1] (Homo sapiens, Jurkat, 48 h) stood at 1200 nM; on FL hMALT1 enzyme, 78 nM.

Consider `CN(C(=O)C1CCS(=O)(=O)CC1)[C@@H](c1ccc(NC2Cc3ccc(F)c(Cl)c3C2)cn1)C(F)(F)F` (single isomer, unassigned) [Example 265], for which the IC50 was determined as 220 nM in assay [1] (Homo sapiens, Jurkat, 48 h) and 32 nM against FL hMALT1 enzyme.

On to `CN1CCCC(C(=O)N(C)[C@@H](c2ccc(NC3Cc4ccccc4C3(C)C)cn2)C(F)(F)F)C1` (single isomer, unassigned) [Example 130], for which the values for the IC50 (in assay [1] (48 hours); against FL hMALT1 enzyme) were 1080 nM and 120 nM, respectively.

Regarding `CN(C(=O)[C@H]1CCC(=O)NC1)[C@@H](c1ccc(NC2Cc3ccc(Cl)c(C4CC4)c3C2)cn1)C(F)(F)F` (single isomer, unassigned) [Example 330], the IC50 in assay [1] (Homo sapiens, Jurkat, 48 h) worked out at 220 nM; on FL hMALT1 enzyme, 16 nM.

`CN(C(=O)[C@H]1C[C@H](N(C)C)C1)[C@@H](c1ccc(NC2Cc3ccccc3C2(C)C)cn1)C(F)(F)F` (single isomer, unassigned) [Example 113]: the results for the IC50 (in assay [1] (48 hours); against FL hMALT1 enzyme) were 490 nM and 67 nM, respectively.

On to `CN(C(=O)C1COCC(=O)N1)[C@@H](c1ccc(NC2Cc3ccccc3C2(C)C)cn1)C(F)(F)F` (single isomer, unassigned) [Example 164], for which the IC50 in assay [1] (Homo sapiens, Jurkat, 48 h) is 150 nM; against FL hMALT1 enzyme, 33 nM.

Turning to `CN(C(=O)C1CCS(=O)(=O)CC1)[C@@H](c1ccc(NC2Cc3cccc(C(F)(F)F)c3C2)cn1)C(F)(F)F` (single isomer, unassigned) [Example 191], the IC50 was 740 nM in assay [1] (Homo sapiens, Jurkat, 48 h) and 26 nM against FL hMALT1 enzyme.

On to `CN(C(=O)[C@H]1CNC(=O)C1)[C@@H](c1ccc(NC2Cc3ccc(Cl)c(Cl)c3C2)nc1)C(F)(F)F` (single isomer, unassigned) [Example 347], for which the IC50 in assay [1] (Homo sapiens, Jurkat, 48 h) is 41 nM; against FL hMALT1 enzyme it was 16 nM.

Take `CN(C(=O)[C@@H]1CNC(=O)C1)[C@@H](c1ccc(NC2Cc3ccc(Cl)c(C4CC4)c3C2)cn1)C(F)(F)F` (single isomer, unassigned) [Example 328]: the IC50 in assay [1] (Homo sapiens, Jurkat, 48 h) was 240 nM; against FL hMALT1 enzyme it was 18 nM.

With `CN1CCCC(C(=O)N(C)[C@@H](c2ccc(NC3Cc4ccccc4C3(C)C)cn2)C(F)(F)F)C1` (single isomer, unassigned) [Example 129], the IC50 came out at 1800 nM in assay [1] (Homo sapiens, Jurkat, 48 h) and 210 nM against FL hMALT1 enzyme.

In the case of `CN(C(=O)C1C2CS(=O)(=O)CC21)[C@@H](c1ccc(NC2Cc3ccccc3C2(C)C)cn1)C(F)(F)F` (single isomer, unassigned) [Example 216], the figures for the IC50 (in assay [1] (48 hours); against FL hMALT1 enzyme) were 1900 nM and 51 nM, respectively.

Take `CN(C(=O)C1CCNC(=O)C1)[C@@H](c1ccc(NC2Cc3ccccc3C2(C)C)cn1)C(F)(F)F` (single isomer, unassigned) [Example 119]: the concentration for half-maximal inhibition (IC50) in assay [1] (48 hours) came out at 1720 nM; at FL hMALT1 enzyme, 150 nM.

As to `CN(C(=O)N1CCS(=O)(=O)CC1)[C@@H](c1ccc(NC2Cc3ccccc3C2(C)C)cn1)C(F)(F)F` (single isomer, unassigned) [Example 142], the IC50 in assay [1] (Homo sapiens, Jurkat, 48 h) is 1790 nM; against FL hMALT1 enzyme, 200 nM.

With `CN(C(=O)C1CN2CCC1CC2)[C@@H](c1ccc(NC2Cc3ccccc3C2(C)C)cn1)C(F)(F)F` (single isomer, unassigned) [Example 141], the IC50 in assay [1] (48 hours) is 1230 nM; against FL hMALT1 enzyme, 210 nM.

With `CN(C(=O)C1CCS(=O)(=O)CC1)[C@@H](c1ccc(NC2Cc3cccc(Cl)c3C2)cn1)C(F)(F)F` (single isomer, unassigned) [Example 263], the IC50 in assay [1] (Homo sapiens, Jurkat, 48 h) stood at 510 nM; against FL hMALT1 enzyme, 61 nM.

In the case of `CN(C(=O)C1CCS(=O)(=O)CC1)[C@@H](c1ccc(NC2Cc3c(F)ccc(Cl)c3C2)cn1)C(F)(F)F` (single isomer, unassigned) [Example 293], the IC50 in assay [1] (Homo sapiens, Jurkat, 48 h) amounted to 460 nM; at FL hMALT1 enzyme it was 55 nM.

In the case of `CN(C(=O)C1CCNC(=O)C1)[C@@H](c1ccc(N[C@H]2Cc3ccc(Cl)cc3C2)cn1)C(F)(F)F` (single isomer, unassigned) [Example 314], the IC50 was 380 nM in assay [1] (Homo sapiens, Jurkat, 48 h) and 150 nM against FL hMALT1 enzyme.

Take `CN(C(=O)C1CCS(=O)(=O)CC1)[C@@H](c1ccc(NC2Cc3ccc(Cl)c(F)c3C2)nc1)C(F)(F)F` (single isomer, unassigned) [Example 332]: the IC50 in assay [1] (Homo sapiens, Jurkat, 48 h) is 47 nM; at FL hMALT1 enzyme it was 14 nM.

Turning to `CN(C(=O)[C@@H]1CC(=O)N1)[C@@H](c1ccc(N[C@H]2Cc3ccccc3C2(C)C)cn1)C(F)(F)F` [Example 165, (S)—N—((S)-1-(5-(((S)-1,1-Dimethyl-2,3-dihydro-1H-inden-2-yl)amino)pyridin-2-yl)-2,2,2-trifluoroethyl)-N-methyl-4-oxoazetidine-2-carboxamide], the IC50 turned out to be 450 nM in assay [1] (Homo sapiens, Jurkat, 48 h) and 87 nM against FL hMALT1 enzyme.

As for `CN(C(=O)C1CCS(=O)(=O)CC1)[C@@H](c1ccc(NC2Cc3ccc(F)c(F)c3C2)cn1)C(F)(F)F` (single isomer, unassigned) [Example 261], the IC50 in assay [1] (48 hours) is 1410 nM; on FL hMALT1 enzyme it was 82 nM.

On to `CN(C(=O)[C@H]1CCC(=O)NC1)[C@@H](c1ccc(N[C@H]2Cc3ccc(Cl)cc3C2)cn1)C(F)(F)F` [Example 297, (S)—N—((S)-1-(5-(((S)-5-Chloro-2,3-dihydro-1H-inden-2-yl)amino)pyridin-2-yl)-2,2,2-trifluoroethyl)-N-methyl-6-oxopiperidine-3-carboxamide], for which the IC50 was 360 nM in assay [1] (Homo sapiens, Jurkat, 48 h) and 170 nM on FL hMALT1 enzyme.

With `CN(C(=O)[C@H]1C[C@]2(CCN2C)C1)[C@@H](c1ccc(NC2Cc3ccccc3C2(C)C)cn1)C(F)(F)F` (single isomer, unassigned) [Example 159], the half-inhibitory concentration (IC50) was determined as 1160 nM in assay [1] (Homo sapiens, Jurkat, 48 h) and 140 nM against FL hMALT1 enzyme.

Regarding `CN(C(=O)C1CCS(=O)(=O)CC1)[C@@H](c1ccc(NC2Cc3cccc(C4CC4)c3C2)cn1)C(F)(F)F` (single isomer, unassigned) [Example 254], the IC50 was found to be 1400 nM in assay [1] (Homo sapiens, Jurkat, 48 h) and 53 nM against FL hMALT1 enzyme.

Regarding `CN(C(=O)C1CC2(CNC(=O)OC2)C1)[C@@H](c1ccc(NC2Cc3ccccc3C2(C)C)nc1)C(F)(F)F` (single isomer, unassigned) [Example 175], the IC50 in assay [1] (48 hours) was found to be 810 nM; on FL hMALT1 enzyme, 54 nM.

Turning to `CN(C(=O)C1CC2(CCC(=O)N2)C1)[C@@H](c1ccc(NC2Cc3ccccc3C2(C)C)cn1)C(F)(F)F` (single isomer, unassigned) [Example 230], the IC50 in assay [1] (Homo sapiens, Jurkat, 48 h) was 340 nM; at FL hMALT1 enzyme, 38 nM.

Regarding `CN(C(=O)C1CNC(=O)CO1)[C@@H](c1ccc(NC2Cc3ccccc3C2(C)C)cn1)C(F)(F)F` (single isomer, unassigned) [Example 136], the IC50 turned out to be 310 nM in assay [1] (48 hours) and 36 nM at FL hMALT1 enzyme.

Regarding `CN(C(=O)C1CNC(=O)O1)[C@@H](c1ccc(N[C@@H]2Cc3ccccc3C2(C)C)cn1)C(F)(F)F` (single isomer, unassigned) [Example 110], the IC50 in assay [1] (48 hours) came out at 149 nM; on FL hMALT1 enzyme it was 16 nM.

Take `CNC(=O)C12CC(C(=O)N(C)[C@@H](c3ccc(N[C@H]4Cc5ccccc5C4(C)C)cn3)C(F)(F)F)(C1)C2` [Example 185, N^1—((S)-1-(5-(((S)-1,1-Dimethyl-2,3-dihydro-1H-inden-2-yl)amino)pyridin-2-yl)-2,2,2-trifluoroethyl)-N^1,N^3-dimethylbicyclo[1.1.1]pentane-1,3-dicarboxamide]: the IC50 in assay [1] (Homo sapiens, Jurkat, 48 h) came to 300 nM; against FL hMALT1 enzyme, 42 nM.
